Some results are limits rather than exact numbers.

The results in this text go back to patent US20080118591A1, “Bactericidal Formulations” (priority 2004, published 2008).

Experiment [1] concerns E. coli. In words: Rapid bactericidal activity of liquid wash formulations. To be noted: in formulation IV, 30 s. The class given is cell-based. The protocol: (§1) A control of each formulation is left un-perfumed. The rapid bactericidal activity of these formulations is then tested as follows: • The products are diluted 1:1 in hard water as defined in the European standard EN 1276. This mimics conditions of use on wet hands or wet surfaces in commonly used water. • 500 μl of the product is mixed with 25 μl of a bacterial inoculum containing 2×10^8 cfu/ml (colony forming units). • The mixture is incubated for 30 seconds at 37° C. • 20 μl of the mixture is removed and added to 180 μl neutralising solution (containing 3 g lecithin, 30 g Tween® 80, 5 g sodium thiosulfate, 1 g histidine, 30 g saponin, 8.5 g sodium chloride, 1 g tryptone and 1000 ml water). • The mixture with neutraliser is incubated for 1 min • Serial dilutions of the mixture with neutralising solution are made, and aliquots of these are added to Petri-dishes and embedded in tryptic soy agar containing 0.5% Tween® 80 to inactivate any residual antibacterial compounds. • Bacterial numbers are counted after 24 h incubation at 37° C. and compared to control samples. • Reduction in bacterial viability is determined as described in example 1
Formulations are tested in a dilution of 1:1 and with 30 seconds contact time to bacteria (E. coli). […]

Experiment [2] relates to S. aureus. Described as above. The class given is cell-based. The note with it: in formulation IV, 30 s. The protocol: as §1, with “The above formulations are supplemented with 0.9% (w/v) of the perfume composition A of example 2. A” for “A”
Formulation IV of example 3 is supplemented with different concentrations of phenolic biocides and different concentrations of the perfume composition A of example 2. The reduction in viability of various test organisms is determined at different dilutions of the formulation (1:1 or 1:3 to simulate conditions of use) after 30 seconds contact time.

Regarding `Oc1cc(Cl)ccc1Oc1ccc(Cl)cc1Cl` [Triclosan, 2,4,4′-trichloro-2′-hydroxy-diphenylether], the “rapid bactericidal effect, E. coli 1:1” value is given as 1 in experiment [1] (Biocide 0.2%, Perfume 0%) and over 250 in experiment [1] (Biocide 0.2%, Perfume 0.45%). Moreover, the “rapid bactericidal effect, E. coli 1:3” value amounted to 1 in experiment [1] (Biocide 0.2%, Perfume 0%) and 2 in experiment [1] (Biocide 0.2%, Perfume 0.45%). Moreover, the “rapid bactericidal effect, S. aureus conc.” value in experiment [2] (Biocide 0.2%, Perfume 0%) is listed as 12; in experiment [2] (Biocide 0.2%, Perfume 0.45%), 31.
On to `Oc1ccc(Cl)cc1Cc1ccccc1` [2-benzyl-4-chlorphenol], for which the “rapid bactericidal effect, E. coli 1:1” value is 1 in experiment [1] (Biocide 0.2%, Perfume 0%); over 250 in experiment [1] (Biocide 0.2%, Perfume 0.45%); 18 in experiment [1] (Biocide 0.4%, Perfume 0%); over 250 in experiment [1] (Biocide 0.4%, Perfume 0.45%). The “rapid bactericidal effect, E. coli 1:3” value was found to be 1 in experiment [1] (Biocide 0.2%, Perfume 0%); 2 in experiment [1] (Biocide 0.2%, Perfume 0.45%); 1 in experiment [1] (Biocide 0.4%, Perfume 0%); 4 in experiment [1] (Biocide 0.4%, Perfume 0.45%). The “rapid bactericidal effect, S. aureus conc.” value in experiment [2] (Biocide 0.2%, Perfume 0%) is 1; in experiment [2] (Biocide 0.2%, Perfume 0.45%), 1; in experiment [2] (Biocide 0.4%, Perfume 0%), 3; in experiment [2] (Biocide 0.4%, Perfume 0.45%), 21.
